According to patent US5514773A, “Depsipeptide derivatives, production thereof and use thereof” (Fujisawa Pharmaceutical Co., Ltd., priority 1992, dated 1996):

Legend:
Type in all cases: in vivo
[1] = tested on: Nippostrongylus brasilienses; experiment: Test 1: reduction of Nippostrongylus brasilienses in infected rats, oral administration; conditions: Wistar rats, oral on 7th, 8th and 9th day after infection, parasites in small intestines counted on 11th day
Experimental: (§1) The effect of parasiticides was examined with the rats which was infected by nematodes which are parasitic on rats, Nippostrongylus brasilienses.
(§2) Wistar strain rats (female 6 weeks old, 120-130 g weight) were […] by infecting them and giving them subcutaneous injections of 3000 infective larvae per rat.
(§3) Test compound of 50 mg was dissolved in 0.25 ml dimethylsulfoxide, 0.5% methylcellulose solution was added, and liquid volume was adjusted to be prescribed volume of 100, 10, 5, 2.5, 1.25, 1.0, 0.63, 0.32 mg/kg to utilize. After they were infected, on each 7th, 8th, and 9th day, the test compound was administered orally with above concentration. On the 11th day, the rat was dissected and the numbers of parasites in the small intestines were measured.
The given measurement was based to calculate the reduction rate from the percentage of the numbers of the parasites of unadministered rats (control). The result of it is shown in the […]

[2] = tested on: Nippostrongylus brasilienses; experiment: Test 2: reduction of Nippostrongylus brasilienses in infected rats, subcutaneous administration; conditions: Wistar rats, otherwise as Test 1
Experimental: as §1, §2, §3
The given measurement was based to calculate the reduction rate from the percentage of the numbers of the parasites of unadministered rats (control). The result of it is shown in the
The reduction rate was calculated in a similar manner as Test 1 except when the test compound was subcutaneously administered to the rats instead of oral administration as in Test 1.

[3] = tested on: Strongyloides venezuelensis; experiment: Test 3: Strongyloides venezuelensis in infected Mongolian gerbils, eggs in feces and worms recovered; conditions: oral once 20 mg/kg, group mean
Excerpt: For 1 rat, the 5000 infective larvae of Strongyloides venezuelensis were infected percutaneously to one group (2 rats) of 8 weeks old Mongolian gerbils. On the 10th day after they were infected, the suspended test compound was orally administered once with the amount of established administration. The effect was judged according to the amount of the eggs in the feces or the numbers of worms in the intestinal tract. The measurement of the numbers of the eggs were taken from O ring method, and the numbers of the eggs (EPG) in 1 g of feces were counted on the day before, on the day, and on the 1st, 2nd, 3rd, and 4th day after the administration. The numbers of the parasites were measured by dissecting Mongolian gerbils the 4th day after the administration (on the 14th day after infection). The method of measurement was followed by releasing the parasites, which live in the small intestines, into saline solution over night, and the released parasites were set to be as numbers of worms recovered.

## CC(C)C[C@H]1C(=O)O[C@H](Cc2ccccc2)C(=O)N(C)[C@@H](CC(C)C)C(=O)O[C@H](C)C(=O)N(C)[C@@H](CC(C)C)C(=O)O[C@H](Cc2ccccc2)C(=O)N(C)[C@@H](CC(C)C)C(=O)O[C@H](C)C(=O)N1C [PF1022]
[1]
  Minimum Amount of Administration indicated by more than 95% of Reduction Rate: 10 mg/kg
[2]
  Minimum Amount of Administration indicated by more than 95% of Reduction Rate: > 100 mg/kg
[3]; day 0 (starting day of administration)
  Change in Numbers of Parasites' Number of Eggs in Feces (EPG/100): 1615 EPG/100
[3]; day 1 after administration
  Change in Numbers of Parasites' Number of Eggs in Feces (EPG/100): 581 EPG/100
[3]; day 2 after administration
  Change in Numbers of Parasites' Number of Eggs in Feces (EPG/100): 1563 EPG/100
[3]; day 3 after administration
  Change in Numbers of Parasites' Number of Eggs in Feces (EPG/100): 935 EPG/100
[3]; day 4 after administration
  Change in Numbers of Parasites' Number of Eggs in Feces (EPG/100): 1005 EPG/100
[3]; day -2 (before administration)
  Change in Numbers of Parasites' Number of Eggs in Feces (EPG/100): 332 EPG/100
[3]; dissected 4th day after administration
  Numbers of the Worms recovered: 3088
